Measured values taken from patent publication US20190225650A1, “PEPTIDOMIMETIC MACROCYCLES AND USE THEREOF IN REGULATING HIF1ALPHA” (AILERON THERAPEUTICS, INC., priority 2013, published 2019).
Bridge positions count the residues as written; N and C are the ends. Square brackets hold non-standard residues; d marks the D form. Peptide text beside a SMILES is read from it. S5 = C=CCCC[C@](C)(N)C(=O)O; Nle = CCCC[C@H](N)C(=O)O

Tested on: HRE-bla ME-180 cells
Assay: Reporter gene assay (HRE-bla ME-180 HIF reporter, GeneBLAzer)
Type: cell-based, human
Conditions: for EC50: 24 hour normoxia
Description: The following reagents were used:
• DMEM+GutaMAX: (#10569044, Invitrogen) • Black clear bottom plates: (#3603, Costar) • HRE-bla-ME-180 cell line: (#K1644, Invitrogen) • Gene-Blazer reagent & protocol: (#K1096, Invitrogen) • Plate reader: Biotek Synergy 2 • Chetomin: (C9623, Sigma)
4 hours prior to experiment: HRE-bla ME-180 cells were seeded at a density of 20,000 cells/well in a volume of 180 μl in black clear bottom 96-well plates. 180 μl of assay medium was added to the cell-free control wells. Incubation was conducted at 37° C., 5% CO2 for 4 hours.
Diluted chetomin was used as a positive control. Chetomin was diluted in 100% DMSO to a 10 mM stock concentration. A 1 mM stock of chetomin was prepared in 100% DMSO. Then the 1 mM chetomin stock was serially diluted in 1:4 in 100% DMSO. Finally, 50, 12.5, 3.125, 0.78, 0.2, 0.05 μM stock of chetomin in 5% DMSO/water were prepared by adding 114 μL water+6 μL chetomin in DMSO.
Test peptides were diluted before use. The test peptides were diluted in 100% DMSO to a 10 mM stock concentration. Then each 10 mM peptide stock was diluted in 1:3 in 100% DMSO. Finally, 300, 100, 33.3, 11.1, 3.7, 1.2 μM stock of each peptide in 5% DMSO/water were prepared by adding 129.2 μL water+4 μL peptide in DMSO.
20 μl of peptide, chetomin dilution, or DMSO/water control were added to the appropriate wells of a plate to achieve 200 μL final volumes in 0.3% DMSO/media. The plate was first incubated for 18-20 hours in normoxia incubator (37° C. in humidified 5% CO2, 20% O2 atmosphere). Then the plate was transferred to hypoxia incubator for 24 hours (37° C. in humidified 5% CO2, 1% O2 atmosphere)
6× LiveBLAzer™-FRET B/G (CCF4-AM) Substrate Mixture was prepared according to CellSensor™ HRE-bla ME-180 Cell-based Assay Protocol (Invitrogen) and added into each well. Solution A (CCF4-AM) was reconstituted in DMSO to a working concentration of 1 mM, divided in aliquots, and stored at −20° C. The 6× LiveBLAzer-FRET B/G (CCF4-AM) Substrate mixture was prepared by mixing 6 μl of Solution A, 60 μl of Solution B, and 934 μl Solution C.
The plates were removed from incubator and equilibrated to RT for a few minutes. Then 20 μl of 6× Substrate mixture was added to each well. The plates were then incubated at room temperature for 3 hr in the dark and read at 409 Ex/460Em and 409Ex/530Em using the “GeneBlazer-Tungsten with export” program on the Synergy 2.
The average percentage of maximum inhibition was obtained by comparing the peptide treated cells (30 μM) to DMSO vehicle control treated cells. The results are shown in the columns “ME-180 HIF Reporter EC50 (μM) −24 hr normoxia” and “18 h Avg % max inhibition at top conc (HIF Rptr-24 hrsnormoxia) (μM)” of Table 6.

Row | EC50 [µM] | SMILES | 18 h Avg % max inhibition at top conc (HIF Rptr-24 hrs normoxia) (μM)
1 | > 30 | CCCC[C@H](NC(=O)[C@H](CC(C)C)NC(=O)[C@@H](NC(=O)[C@H](CCC(=O)O)NC(=O)[C@H](CCC(=O)O)NC(=O)[C@H](CC(=O)O)NC(=O)[C@@H](NC(=O)[C@H](Cc1ccccc1)NC(C)=O)[C@@H](C)CC)C(C)C)C(=O)N[C@@]1(C)CCCC=CCCC[C@@](C)(C(=O)N[C@@H](CCCC)C(=O)N[C@@H](C)C(=O)N[C@@H](CC(C)C)C(=O)N[C@@H](CC(=O)O)C(=O)N[C@@H](CCCNC(=N)N)C(=O)N[C@H](C(N)=O)[C@@H](C)CC)NC(=O)[C@H]([C@@H](C)CC)NC(=O)[C@H](C(C)C)NC(=O)[C@H](CC(=O)O)NC1=O [SP-35] (Ac-FIDEEVL[Nle][S5]DVI[S5][Nle]ALDRI-NH2; staple 9-13) | + (<10: +)
2 | > 30 | CC[C@H](C)[C@H](NC(=O)[C@H](CCCNC(=N)N)NC(=O)[C@H](CC(=O)O)NC(=O)[C@H](CC(C)C)NC(=O)CNC(=O)[C@H](CCSC)NC(=O)[C@H](CCC(=O)O)NC(=O)[C@@H](NC(=O)[C@@H](NC(=O)[C@H](CC(C)C)NC(=O)[C@H](CO)NC(=O)[C@]1(C)CCCC=CCCC[C@](C)(NC(=O)[C@H](CC(=O)O)NC(=O)[C@@H](NC(=O)[C@H](Cc2ccccc2)NC(C)=O)[C@@H](C)CC)C(=O)N[C@@H](CCC(=O)O)C(=O)N[C@@H](C(C)C)C(=O)N[C@@H](CC(C)C)C(=O)N1)C(C)C)[C@@H](C)CC)C(=O)N[C@@H](CCCCN)C(=O)N[C@@H](CCC(=O)O)C(=O)N[C@@H](CC(C)C)C(=O)N1CCC[C@H]1C(=O)N[C@@H](CCC(=O)O)C(=O)N[C@@H](CC(C)C)C(=O)N[C@@H](Cc1c[nH]c2ccccc12)C(=O)N[C@@H](CC(C)C)C(N)=O [SP-76] (Ac-FID[S5]EVL[S5]SLVIEMGLDRIKELPELWL-NH2; staple 4-8) | + (<10: +)
3 | 15 to 30 | CCCC[C@H](NC(=O)[C@H](CC(C)C)NC(=O)[C@H](CO)NC(=O)[C@H](CCC(=O)O)NC(=O)[C@H](CCC(=O)O)NC(=O)[C@H](CC(=O)O)NC(=O)[C@@H](NC(=O)[C@H](Cc1ccccc1)NC(C)=O)[C@@H](C)CC)C(=O)N[C@@]1(C)CCCC=CCCC[C@@](C)(C(=O)N[C@@H](CCCC)C(=O)N[C@@H](C)C(=O)N[C@@H](CC(C)C)C(=O)N[C@@H](CC(=O)O)C(=O)N[C@@H](CCCNC(=N)N)C(=O)N[C@H](C(N)=O)[C@@H](C)CC)NC(=O)[C@H]([C@@H](C)CC)NC(=O)[C@H](C(C)C)NC(=O)[C@H](CC(C)C)NC1=O [SP-48] (Ac-FIDEESL[Nle][S5]LVI[S5][Nle]ALDRI-NH2; staple 9-13) | +++ (≤25 but <50: +++)
4 | 15 to 30 | CC[C@H](C)[C@H](NC(=O)[C@H](Cc1ccccc1)NC(C)=O)C(=O)N[C@@H](CC(=O)O)C(=O)N[C@@H](CCC(=O)O)C(=O)N[C@@H](CCC(=O)O)C(=O)N[C@H](C(=O)N[C@@H](CC(C)C)C(=O)N[C@@H](C)C(=O)N[C@@]1(C)CCCC=CCCC[C@@](C)(C(=O)N[C@@H](C)C(=O)N[C@@H](C)C(=O)N[C@@H](CC(C)C)C(=O)N[C@@H](CC(=O)O)C(=O)N[C@@H](CCCNC(=N)N)C(N)=O)NC(=O)[C@H]([C@@H](C)CC)NC(=O)[C@H](C(C)C)NC(=O)[C@H](CC(C)C)NC1=O)C(C)C [SP-28] (Ac-FIDEEVLA[S5]LVI[S5]AALDR-NH2; staple 9-13) | ++++ (≥50: ++++)
5 | > 30 | CCCC[C@H](NC(=O)[C@H](CC(C)C)NC(=O)[C@@H](NC(=O)[C@H](CCC(=O)O)NC(=O)[C@H](CCC(=O)O)NC(=O)[C@H](CC(=O)O)NC(=O)[C@H](CO)NC(=O)[C@H](Cc1ccccc1)NC(C)=O)C(C)C)C(=O)N[C@@]1(C)CCCC=CCCC[C@@](C)(C(=O)N[C@@H](CCCC)C(=O)N[C@@H](C)C(=O)N[C@@H](CC(C)C)C(=O)N[C@@H](CC(=O)O)C(=O)N[C@@H](CCCNC(=N)N)C(=O)N[C@H](C(N)=O)[C@@H](C)CC)NC(=O)[C@H]([C@@H](C)CC)NC(=O)[C@H](C(C)C)NC(=O)[C@H](CC(C)C)NC1=O [SP-45] (Ac-FSDEEVL[Nle][S5]LVI[S5][Nle]ALDRI-NH2; staple 9-13) | ++ (≤10 but <25: ++)
6 | 5 to 15 | CC[C@H](C)[C@H](NC(=O)[C@H](CCCNC(=N)N)NC(=O)[C@H](CC(=O)O)NC(=O)[C@H](CC(C)C)NC(=O)[C@H](C)NC(=O)[C@H](C)NC(=O)[C@]1(C)CCCC=CCCC[C@](C)(NC(=O)[C@H](C)NC(=O)[C@H](CC(C)C)NC(=O)[C@@H](NC(=O)[C@H](CCC(N)=O)NC(=O)[C@H](CCC(=O)O)NC(=O)[C@H](CC(=O)O)NC(=O)[C@@H](NC(=O)[C@H](Cc2ccccc2)NC(C)=O)[C@@H](C)CC)C(C)C)C(=O)N[C@@H](CC(C)C)C(=O)N[C@@H](C(C)C)C(=O)N[C@@H]([C@@H](C)CC)C(=O)N1)C(N)=O [SP-70] (Ac-FIDEQVLA[S5]LVI[S5]AALDRI-NH2; staple 9-13) | +++ (≤25 but <50: +++)
7 | 5 to 15 | CCCC[C@H](NC(=O)[C@H](CC(C)C)NC(=O)[C@@H](NC(=O)[C@H](CCC(=O)O)NC(=O)[C@H](CCC(=O)O)NC(=O)[C@H](CC(=O)O)NC(=O)[C@@H](NC(=O)[C@H](Cc1ccccc1)NC(C)=O)[C@@H](C)CC)C(C)C)C(=O)N[C@@]1(C)CCCC=CCCC[C@@](C)(C(=O)N[C@@H](CCCC)C(=O)N[C@@H](C)C(=O)N[C@@H](C)C(=O)N[C@@H](CC(=O)O)C(=O)N[C@@H](CCCNC(=N)N)C(=O)N[C@H](C(N)=O)[C@@H](C)CC)NC(=O)[C@H]([C@@H](C)CC)NC(=O)[C@H](C(C)C)NC(=O)[C@H](CC(C)C)NC1=O [SP-22] (Ac-FIDEEVL[Nle][S5]LVI[S5][Nle]AADRI-NH2; staple 9-13) | ++++ (≥50: ++++)
8 | 5 to 15 | CCCC[C@H](NC(=O)[C@H](CC(C)C)NC(=O)[C@@H](NC(=O)[C@H](CCC(=O)O)NC(=O)[C@H](CCC(=O)O)NC(=O)[C@H](C)NC(=O)[C@@H](NC(=O)[C@H](Cc1ccccc1)NC(C)=O)[C@@H](C)CC)C(C)C)C(=O)N[C@@]1(C)CCCC=CCCC[C@@](C)(C(=O)N[C@@H](CCCC)C(=O)N[C@@H](C)C(=O)N[C@@H](CC(C)C)C(=O)N[C@@H](CC(=O)O)C(=O)N[C@@H](CCCNC(=N)N)C(=O)N[C@H](C(N)=O)[C@@H](C)CC)NC(=O)[C@H]([C@@H](C)CC)NC(=O)[C@H](C(C)C)NC(=O)[C@H](CC(C)C)NC1=O [SP-11] (Ac-FIAEEVL[Nle][S5]LVI[S5][Nle]ALDRI-NH2; staple 9-13) | ++++ (≥50: ++++)
9 | > 30 | CCCC[C@H](NC(=O)[C@H](CC(C)C)NC(=O)[C@@H](NC(=O)[C@H](CCC(=O)O)NC(=O)[C@H](CCC(=O)O)NC(=O)[C@H](CC(=O)O)NC(=O)[C@@H](NC(=O)[C@H](Cc1ccccc1)NC(=O)[C@H](CC(=O)O)NC(C)=O)[C@@H](C)CC)C(C)C)C(=O)N[C@@]1(C)CCCC=CCCC[C@@](C)(C(=O)N[C@@H](CCCC)C(=O)N[C@@H](C)C(=O)N[C@@H](CC(C)C)C(=O)N[C@@H](CC(=O)O)C(=O)N[C@@H](CCCNC(=N)N)C(=O)N[C@H](C(N)=O)[C@@H](C)CC)NC(=O)[C@H]([C@@H](C)CC)NC(=O)[C@H](C(C)C)NC(=O)[C@H](CC(C)C)NC1=O [SP-29] (Ac-DFIDEEVL[Nle][S5]LVI[S5][Nle]ALDRI-NH2; staple 10-14) | ++ (≤10 but <25: ++)
10 | 15 to 30 | CCCC[C@H](NC(=O)[C@H](CC(C)C)NC(=O)[C@@H](NC(=O)[C@H](CCC(=O)O)NC(=O)[C@H](CCC(=O)O)NC(=O)[C@H](CC(=O)O)NC(=O)[C@@H](NC(=O)[C@H](CO)NC(C)=O)[C@@H](C)CC)C(C)C)C(=O)N[C@@]1(C)CCCC=CCCC[C@@](C)(C(=O)N[C@@H](CCCC)C(=O)N[C@@H](C)C(=O)N[C@@H](CC(C)C)C(=O)N[C@@H](CC(=O)O)C(=O)N[C@@H](CCCNC(=N)N)C(=O)N[C@H](C(N)=O)[C@@H](C)CC)NC(=O)[C@H]([C@@H](C)CC)NC(=O)[C@H](C(C)C)NC(=O)[C@H](CC(C)C)NC1=O [SP-44] (Ac-SIDEEVL[Nle][S5]LVI[S5][Nle]ALDRI-NH2; staple 9-13) | +++ (≤25 but <50: +++)
